SMILES strings stand for the structures. pEC50: −log10 of the molar value. Where only a bound is given, the exact number is not on record here.

The first test has as its system HIV-1. Description: HIV-1 single-round infectious luciferase reporter virus (pseudotype) assay in HeLa CD4 CCR5 cells. The format is cell-based. The following applies: Human immunodeficiency virus 1, HeLa-CD4/CCR5, read-out: EC50 Group from TABLE 1, HeLa CD4 CCR5 cells, single-round infectious luciferase reporter virus. The essentials: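 HeLa CD4 CCR5 cells (5×10^4/well, DMEM + 10% FBS) were treated with compound (final <10 μM) and infected with single-round luciferase reporter virus made in 293 cells, at MOI ~0.01. Luciferase was read 72 h post infection. EC50 came from 10-concentration percent-inhibition curves fitted to a four-parameter logistic model.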
`COc1cnc(-c2cc3ccccc3o2)c2[nH]cc(C(=O)C(=O)N3CCN(C(=O)c4ccccn4)CC3)c12` [Example 183, 1-picolinoyl-4-[(4-methoxy-7-(benzofuran-2-yl)-6-azaindol-3-yl)-oxoacetyl]piperazine]: the pEC50 was > 6.00.
With `O=C(C(=O)N1CCN(C(=O)c2ccccc2)CC1)c1c[nH]c2c(-c3ccccn3)nccc12` [Example 19, 1-benzoyl-4-[(7-(pyridin-2-yl)-6-azaindol-3-yl)-oxoacetyl]piperazine], the negative-log EC50 (pEC50) was > 6.00.
The same measure, in the same setting: then `COc1cnc(-n2ccc(-c3cccc(C(=O)O)c3)n2)c2[nH]cc(C(=O)C(=O)N3CCN(C(=O)c4ccccc4)CC3)c12` [Example 294, 1-benzoyl-4-[(4-methoxy-7-(3-(3-hydroxylcarbonylphenyl)-pyrazol-1-yl)-6-azaindol-3-yl)-oxoacetyl]piperazine], with > 6.00; and `COc1cnc(-c2cnc(NC(C)=O)cn2)c2[nH]cc(C(=O)C(=O)N3CCN(C(=O)c4ccccc4)CC3)c12` [Example 99, 1-(benzoyl)-4-[(4-methoxy-7-(2-acetylamino-pyrazin-5-yl)-6-azaindol-3-yl)-oxoacetyl]piperazine], with > 6.00.
On to `C[C@@H]1CN(C(=O)c2ccccn2)CCN1C(=O)C(=O)c1c[nH]c2c(-c3cnccn3)ncc(F)c12` [Example 141], for which the pEC50 is > 6.00.
Turning to `O=C(C(=O)N1CCN(C(=O)c2ccccc2)CC1)c1c[nH]c2c(-c3ccnnc3)ncc(F)c12` [Example 30, 1-benzoyl-4-[(4-fluoro-7-(pyridazin-4-yl)-6-azaindol-3-yl)-oxoacetyl]piperazine], the pEC50 is > 6.00.
On to `C[C@@H]1CN(C(=O)c2ccccc2)CCN1C(=O)C(=O)c1c[nH]c2c(-c3cnc(O)nc3)nccc12` [Example 162], for which the pEC50 is > 6.00.
Take `COc1cnc(-c2ccc(C=O)s2)c2[nH]cc(C(=O)C(=O)N3CCN(C(=O)c4ccccc4)CC3)c12` [Example 84, 1-benzoyl-4-[(4-methoxy-7-(5-carbonyl-thiophen-2-yl)-6-azaindol-3-yl)-oxoacetyl]piperazine]: the pEC50 is > 6.00.
Same read-out and setting: the same measure for `COc1cnc(-n2ccc(C(C)C)n2)c2[nH]cc(C(=O)C(=O)N3CCN(C(=O)c4ccccc4)CC3)c12` [Example 249, 1-benzoyl-4-[(4-methoxy-7-(3-iso-propyl-pyrazol-1-yl)-6-azaindol-3-yl)-oxoacetyl]piperazine]: > 6.00.
The same measure, in the same setting: then `CCNc1cnc(-c2ncc(OC)c3c(C(=O)C(=O)N4CCN(C(=O)c5ccccc5)CC4)c[nH]c23)cn1` [Example 79, 1-benzoyl-4-[(4-methoxy-7-(2-ethylamino-pyrazin-5-yl)-6-azaindol-3-yl)-oxoacetyl]piperazine], with > 6.00.
In the case of `O=C(C(=O)N1CCN(C(=O)c2ccccc2)CC1)c1c[nH]c2c(-c3nccs3)nccc12` [Example 21, 1-benzoyl-4-[(7-(thiazol-2-yl)-6-azaindol-3-yl)-oxoacetyl]piperazine], the pEC50 was > 6.00.
On the same count and under the same terms, then `CC1CN(C(=O)c2ccccc2)CCN1C(=O)C(=O)c1c[nH]c2c(-c3ccc4c(c3)OCO4)nccc12` (stereo not drawn) [Example 5, 1-benzoyl-3-methyl-4-[(7-(3,4-methylenedioxyphenyl)-6-azaindol-3-yl)-oxoacetyl]piperazine], with > 6.00.

Staying with this test, now noted: Human immunodeficiency virus 1, HeLa-CD4/CCR5, read-out: EC50 Group from Table 1, Table 2-1; HeLa CD4 CCR5 cells, single-round luciferase reporter virus.
Regarding `COc1cnc(-n2ccc(CN(C)C)n2)c2[nH]cc(C(=O)C(=O)N3CCN(C(=O)c4ccccc4)[C@H](C)C3)c12` [Example 239, (R)-1-benzoyl-2-methyl-4-[(4-methoxy-7-(3-(N,N-dimethylamino)methyl-pyrazol-1-yl)-6-azaindol-3-yl)-oxoacetyl]piperazine], the pEC50 was > 6.00.
Turning to `CCc1n[nH]c(-c2ncc(OC)c3c(C(=O)C(=O)N4CCN(C(=O)c5ccccc5)[C@H](C)C4)c[nH]c23)n1` [Example 336], the pEC50 is > 6.00.
On the same count and under the same terms, the same measure for `COc1cnc(-n2ccc(C3CCC3)n2)c2[nH]cc(C(=O)C(=O)N3CCN(C(=O)c4ccccc4)[C@H](C)C3)c12` [Example 232, (R)-1-benzoyl-2-methyl-4-[(4-methoxy-7-(3-cycloputyl-pyrazol-1-yl)-6-azaindol-3-yl)-oxoacetyl]piperazine]: > 6.00.

Values taken from patent US20050090522A1 (priority 2001, published 2005).
